For data set [1], the target named is T1, CYP2C41 (Canis lupus familiaris, UniProt O62671).
T1 sequence (O62671 1-489): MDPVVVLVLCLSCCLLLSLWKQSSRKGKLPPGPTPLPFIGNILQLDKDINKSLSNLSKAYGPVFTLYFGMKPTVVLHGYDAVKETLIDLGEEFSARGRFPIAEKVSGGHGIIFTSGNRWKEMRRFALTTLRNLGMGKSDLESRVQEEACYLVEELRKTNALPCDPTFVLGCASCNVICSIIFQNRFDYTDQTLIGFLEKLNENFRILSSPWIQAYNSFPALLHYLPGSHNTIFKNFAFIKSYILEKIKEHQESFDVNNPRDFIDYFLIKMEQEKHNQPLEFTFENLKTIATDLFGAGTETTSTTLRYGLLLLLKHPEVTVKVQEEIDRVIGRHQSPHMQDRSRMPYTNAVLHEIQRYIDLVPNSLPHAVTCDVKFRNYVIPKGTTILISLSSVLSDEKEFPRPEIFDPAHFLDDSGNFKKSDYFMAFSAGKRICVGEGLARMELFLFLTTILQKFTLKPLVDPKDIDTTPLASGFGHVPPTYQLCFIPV
The class given is in vitro ADME, canine. The following applies: recombinant CYP2C41; (+)-M1 10 μM, (+)-M2 0.5 μM.

Data set [2] relates to dog liver microsomes. It counts as in vitro ADME. The following applies: for Km / Vmax: formation of (+)-M5 from substrate.
Data set [3] deals with T2, CYP1A2 (Canis lupus familiaris, UniProt P56592).
T2 sequence (P56592 1-512): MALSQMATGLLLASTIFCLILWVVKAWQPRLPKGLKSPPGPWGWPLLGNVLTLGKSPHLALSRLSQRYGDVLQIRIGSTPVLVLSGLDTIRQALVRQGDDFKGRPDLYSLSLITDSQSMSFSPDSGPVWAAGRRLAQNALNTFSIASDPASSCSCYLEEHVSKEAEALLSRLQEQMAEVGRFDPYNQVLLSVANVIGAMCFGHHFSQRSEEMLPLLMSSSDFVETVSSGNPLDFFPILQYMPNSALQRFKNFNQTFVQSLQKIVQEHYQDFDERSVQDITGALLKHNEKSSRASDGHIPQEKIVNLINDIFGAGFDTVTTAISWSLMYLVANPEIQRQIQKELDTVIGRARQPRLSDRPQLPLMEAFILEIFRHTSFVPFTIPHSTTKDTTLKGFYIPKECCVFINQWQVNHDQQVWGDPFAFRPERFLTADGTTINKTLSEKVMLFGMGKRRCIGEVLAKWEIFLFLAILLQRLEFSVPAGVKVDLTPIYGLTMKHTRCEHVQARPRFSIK
The class given is in vitro ADME, canine. The following applies: recombinant CYP1A2; (+)-M1 10 μM, (+)-M2 0.5 μM.

Data set [4] concerns the target T3, CYP2B11 (Canis lupus familiaris, UniProt P24460).
T3 sequence (P24460 1-494): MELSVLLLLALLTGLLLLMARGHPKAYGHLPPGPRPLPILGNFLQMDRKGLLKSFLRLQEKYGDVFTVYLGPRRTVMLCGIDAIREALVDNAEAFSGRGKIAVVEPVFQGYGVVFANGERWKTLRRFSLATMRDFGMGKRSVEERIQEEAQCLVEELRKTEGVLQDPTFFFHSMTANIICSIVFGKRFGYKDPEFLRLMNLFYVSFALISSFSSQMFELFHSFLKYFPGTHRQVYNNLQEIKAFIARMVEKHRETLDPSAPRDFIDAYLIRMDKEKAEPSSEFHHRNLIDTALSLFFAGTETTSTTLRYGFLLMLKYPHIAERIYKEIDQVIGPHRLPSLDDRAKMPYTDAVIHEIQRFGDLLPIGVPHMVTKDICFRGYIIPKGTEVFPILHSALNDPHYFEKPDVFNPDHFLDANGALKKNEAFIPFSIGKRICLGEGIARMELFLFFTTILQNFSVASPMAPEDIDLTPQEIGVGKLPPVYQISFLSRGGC
The class given is in vitro ADME, canine. The following applies: recombinant CYP2B11; (+)-M1 10 μM, (+)-M2 0.5 μM.

The target in data set [5] is T4, CYP2D15 (Canis lupus familiaris, UniProt Q29473).
T4 sequence (Q29473 1-500): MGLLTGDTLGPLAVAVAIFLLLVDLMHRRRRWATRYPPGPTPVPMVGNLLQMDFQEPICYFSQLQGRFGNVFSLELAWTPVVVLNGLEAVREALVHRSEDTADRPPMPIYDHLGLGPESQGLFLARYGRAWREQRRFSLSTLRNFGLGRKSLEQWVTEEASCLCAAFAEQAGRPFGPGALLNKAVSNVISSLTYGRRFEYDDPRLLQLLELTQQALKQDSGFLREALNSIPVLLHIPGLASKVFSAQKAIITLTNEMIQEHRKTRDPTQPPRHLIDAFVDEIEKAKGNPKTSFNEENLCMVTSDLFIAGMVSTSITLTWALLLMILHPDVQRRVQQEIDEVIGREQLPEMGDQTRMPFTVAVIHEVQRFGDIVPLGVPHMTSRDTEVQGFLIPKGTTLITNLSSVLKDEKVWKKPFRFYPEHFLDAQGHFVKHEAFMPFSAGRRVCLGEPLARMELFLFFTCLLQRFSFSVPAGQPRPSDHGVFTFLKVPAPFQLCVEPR
The class given is in vitro ADME, canine. The following applies: recombinant CYP2D15; (+)-M1 10 μM, (+)-M2 0.5 μM.

The target of data set [6] is CYP3A12 (Canis lupus familiaris, UniProt P24463). The class given is in vitro ADME, canine. As to conditions: recombinant CYP3A12; (+)-M1 10 μM, (+)-M2 0.5 μM.
The test system of data set [7] is cat liver microsomes. It counts as in vitro ADME. As to conditions: pooled cat liver microsomes (n = 16); (+)-M1 at 10 μM, (+)-M2 at 0.5 μM. Background: Liver microsomes are vesicles of endoplasmic reticulum, rich in cytochrome P450 enzymes.
Data set [8] concerns human liver microsomes. The class given is in vitro ADME. The following applies: pooled human liver microsomes (n = 48); (+)-M1 at 10 μM, (+)-M2 at 0.5 μM.

Read-outs that look alike come from different tables or passages of the source.

Broadly, the Km is the substrate concentration at which the rate is half of its maximum.

Sequence of CYP3A12 (P24463 whole entry): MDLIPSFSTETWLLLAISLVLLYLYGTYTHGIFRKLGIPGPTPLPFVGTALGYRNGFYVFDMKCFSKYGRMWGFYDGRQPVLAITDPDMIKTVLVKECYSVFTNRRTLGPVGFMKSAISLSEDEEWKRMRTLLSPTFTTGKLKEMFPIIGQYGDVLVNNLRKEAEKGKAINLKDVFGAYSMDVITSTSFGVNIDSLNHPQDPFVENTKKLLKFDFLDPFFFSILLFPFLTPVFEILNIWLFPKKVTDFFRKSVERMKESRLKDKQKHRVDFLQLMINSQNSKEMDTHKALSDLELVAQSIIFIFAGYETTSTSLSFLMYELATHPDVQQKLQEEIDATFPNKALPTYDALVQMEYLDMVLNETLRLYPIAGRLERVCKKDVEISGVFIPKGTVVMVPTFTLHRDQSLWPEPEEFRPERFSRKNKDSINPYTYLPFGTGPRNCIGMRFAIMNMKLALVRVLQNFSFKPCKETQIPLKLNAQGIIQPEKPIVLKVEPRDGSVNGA

Take `CN(C)CC1CCCCC1(O)c1cccc(O)c1.Cl` (single isomer, unassigned; (+)) [(+)-M1, (+)-O-desmethyltramadol hydrochloride]: the “formation rate of (+)-M5 (in words)” value in data set [1] was “somewhat lower activities”; in data set [3], “only very low activities”; in data set [4], “somewhat lower activities”; in data set [5], “only very low activities”; in data set [6], “only very low activities”. Moreover, the Km worked out at 158 µM in data set [2] (Dog 10 liver microsomes), 64 µM in data set [2] (Dog 31 liver microsomes), 108 µM in data set [2] (Dog 46 liver microsomes) and 112 µM in data set [2] (pDLM (liver microsomes pooled from 59 dogs)). In addition, the Vmax in data set [2] (Dog 10 liver microsomes) came to 63 pmol/min/mg protein; in data set [2] (Dog 31 liver microsomes), 67 pmol/min/mg protein; in data set [2] (Dog 46 liver microsomes) it was 94 pmol/min/mg protein; in data set [2] (pDLM (pooled from 59 dogs)), 61 pmol/min/mg protein. Also, the “(+)-M5 formation rate (in words)” value in data set [2] (pooled dog liver microsomes (n = 59), (+)-M1 at 10 μM, (+)-M2 at 0.5 μM) is listed as “highest activities”; in data set [7], “low activities”; in data set [8] it was “low activities”.

Values taken from PMC6214715 (Journal of veterinary pharmacology and therapeutics, 2018).
